A word on the IC50: it is the concentration at which inhibition is half-maximal.

For data set [1], the system named is Human Glioblastoma Cells U-87MG Xenograft. Briefly: Tumor growth in human glioblastoma U-87MG xenograft model of nude mice. The format is in vivo. The following applies: for tumor growth inhibition (TGI): 17 days, end of treatment; for inhibitory action on the growth of transplanted tumor: at each administration dose (50, 100 mg/kg i.p. daily). How it is done:
The treatment group was administered intraperitoneally and daily with compound I-19 at various concentrations (50 mg/kg, 100 mg/kg) respectively.
The length (A) and width (B) of the tumor in mice were measured twice a week and tumor volume was calculated thereby as: V=A×B^2/2. Provided that Vt was the tumor volume measured at a given time point and V0 was the tumor volume measured before the mice were grouped and administered, tumor growth inhibition (TGI) was calculated as: […]
Background: In xenograft studies the graft and the host belong to different species.

Data set [2] in a line: Body weight and death of nude mice bearing U-87MG (toxicity and side effect). The conditions noted are these: for weight loss of nude mice: 50 and 100 mg/kg intraperitoneally once daily, 17 days. On the procedure: LI-87MG Cells were inoculated subcutaneously in right axillary fossa of nude mice with 5×10^6 cells per mouse. After the xenografted tumor was formed, it was passed three generations in nude mice and then used. Tumor tissue in productive phase was cut into nubs of about 1.5 mm^3 and inoculated subcutaneously in right axillary fossa of the nude mice in a sterile condition. The diameters of the xenografted tumors were measured by a vernier caliper. […] The administration was performed once daily and lasted for 17 days. At the same time, the negative group was administered with equivalent physiological saline.
wherein, CVt was tumor volume in control group measured at a given time point, CV0 was tumor volume in control group measured before grouping and treatment, TVt was tumor volume in treatment group measured at a given time point, and TV0 was tumor volume in treatment group measured before grouping and treatment. The significant differences between the treated and control groups were evaluated using t-test. At the same time, body weight of nude mice in each group was measured twice a week to preliminarily evaluate the toxicity and side effect of compound.

Another data set concerns the target c-Met tyrosine kinase (Homo sapiens, UniProt P08581). As to the kind of experiment: c-Met kinase activity on molecular level (ELISA, Poly(Glu,Tyr)4:1 substrate). The format is biochemical. The following applies: ATP 5 μM, 37° C., 1 h. How it is done: Poly(Glu, Tyr)4:1 as an enzyme substrate was diluted by potassium ion-free PBS (10 mM, sodium phosphate buffer, 150 mM NaCl, pH7.2-7.4) into a solution of 20 μg/ml. […] After the liquid in wells was removed, the plate was washed three time by T-PBS (PBS solution containing 0.1% Tween-20) at 200 μl/well, 5 min for each time. The ELISA plate was then dried in an oven at 37° C. for 1-2 h.
Each well was added with 50 μL of ATP solution diluted by reaction buffer (50 mM HEPES pH 7.4, 50 mM MgCl2, 0.5 mM MnCl2, 0.2 mM Na3VO4, 1 mM DTT) at a final concentration of 5 μM. Compound diluted by 1% DMSO into a suitable concentration was added at 10 μl/well and then c-Met tyrosine kinase protein diluted by 40 μl of reaction buffer was added. The plate was placed on a shaking table (100 rpm) at 37° C. and incubated for 1 h, and then washed three times by T-PBS. For each assay, triplicate wells without enzyme were used as blank control and wells having the corresponding DMSO concentration without compound were used as negative control. Primary antibody PY99 (p-Tyr (PY99), Cell Signaling Technology, 1:1000 diluted in 5 mg/mL BSA T-PBS) was added at 100 μl/well. The plate was then placed on a shaking table at 37° C. and incubated for 0.5 h, and washed by T-PBS. Secondary antibody horseradish peroxidase-conjugated goat anti-mouse IgG (1:2000 diluted in 5 mg/mL BSA T-PBS) was added at 100 μl/well. The plate was then placed on a shaking table at 37° C. for 0.5 h and washed three times by T-PBS. 2 mg/mL of OPD developer (diluted by a 0.1M citric acid-sodium citrate buffer (pH=5.4) containing 0.03% of H2O2) was added at 100 μl/well, and the plate was kept in dark at 25° C. for 1-10 min. OPD was ultrasonically dissolved and the developer solution was prepared just before use. 2 M of H2SO4 was added at 50 μl/well to stop the reaction. The plate was read using a wavelength regulated multi-well spectrophotometer (SPECTRA MAX 190) at 490 nm.
The inhibition rate was calculated according to the following equation:
Inhibition rate (%)=(1−(ODcompound−ODblank)/(ODnegative−ODblank))×100%
IC50 value was calculated through a four-parameter fit according to the inhibition curve.

In the next data set the test system is NIH3T3/TPR-Met cells. As to the kind of experiment: Cell proliferation mediated by c-Met, SRB assay, NIH3T3/TPR-Met cells. The format is cell-based. The conditions noted are these: 72 h; for inhibition at 1 µM / inhibition at 10 µM / inhibition at 50 µM: Mus musculus, NIH3T3, read-out: inhibition rate (%) on proliferation of NIH3T3/TPR-Met cells. On the procedure: Three concentrations were set, and for each concentration, the test was carried out in triplicate wells. 72 h later, the culture medium was removed. The residue was fixed by precooled 10% TCA at 4° C. for 1 h, washed by distilled water for 5 times and dried at room temperature. […] The excess dye was removed by washed with 1% glacial acetic acid for 5 times and dried in air. At last, 150 μL of Tris-HCL solution (10 mM Tris, pH 10.0) was added to each well.
(In general: In SRB staining, fixed cells bind dye roughly in proportion to their protein.)

Another data set relates to NIH3T3 background cells. Briefly: Cell proliferation, SRB assay, NIH3T3 background cells as control. The format is cell-based. The following applies: 72 h; for inhibition at 1 µM / inhibition at 10 µM / inhibition at 50 µM: Mus musculus, NIH3T3, read-out: inhibition rate (%) on proliferation of NIH3T3 background cells. How it is done: NIH3T3/TPR-Met cells in the logarithmic growth phase and NIH3T3 background cells were seeded in a 96-well microcuture plate at 90111_, per well and cultivated overnight, followed by addition of 104 of the compound at different concentrations. Three concentrations were set, and for each concentration, the test was carried out in triplicate wells. 72 h later, the culture medium was removed. The residue was fixed by precooled 10% TCA at 4° C. for 1 h, washed by distilled water for 5 times and dried at room temperature. After that, 4 mg/mL of sulforodamine B (SRB) in 1% glacial acetic acid was added to each well (1004 per well) for staining at room temperature for 15 min. The excess dye was removed by washed with 1% glacial acetic acid for 5 times and dried in air. At last, 150 μL of Tris-HCL solution (10 mM Tris, pH 10.0) was added to each well. OD values were measured on a multi-well spectrophotometer at […].

The target of the next data set is T1, TPR-Met (Homo sapiens, UniProt P08581).
T1 construct: therein no interference of Met's extracellular fragment, and the intracellular TPR-Met fused protein was expressed in cytoplasm; expressed in transfected cells; host or cells: NIH3T3/TPR-Met cells (mouse fibroblasts expressing TPR-Met); the other entry of the earlier key: TPR (P12270, Nucleoprotein TPR)
As to the kind of experiment: TPR-Met phosphorylation in NIH3T3/TPR-Met cells (Western blot). The following applies: 0.01 μM, 6 h. The format is cell-based. In general terms: Immunoblotting shows a protein as a band on a membrane.

Where [3] appears, read: 50 mg/kg intraperitoneally once daily.
[4] abbreviates: 100 mg/kg intraperitoneally once daily.

c-Met tyrosine kinase, sequence (P08581 25-1390): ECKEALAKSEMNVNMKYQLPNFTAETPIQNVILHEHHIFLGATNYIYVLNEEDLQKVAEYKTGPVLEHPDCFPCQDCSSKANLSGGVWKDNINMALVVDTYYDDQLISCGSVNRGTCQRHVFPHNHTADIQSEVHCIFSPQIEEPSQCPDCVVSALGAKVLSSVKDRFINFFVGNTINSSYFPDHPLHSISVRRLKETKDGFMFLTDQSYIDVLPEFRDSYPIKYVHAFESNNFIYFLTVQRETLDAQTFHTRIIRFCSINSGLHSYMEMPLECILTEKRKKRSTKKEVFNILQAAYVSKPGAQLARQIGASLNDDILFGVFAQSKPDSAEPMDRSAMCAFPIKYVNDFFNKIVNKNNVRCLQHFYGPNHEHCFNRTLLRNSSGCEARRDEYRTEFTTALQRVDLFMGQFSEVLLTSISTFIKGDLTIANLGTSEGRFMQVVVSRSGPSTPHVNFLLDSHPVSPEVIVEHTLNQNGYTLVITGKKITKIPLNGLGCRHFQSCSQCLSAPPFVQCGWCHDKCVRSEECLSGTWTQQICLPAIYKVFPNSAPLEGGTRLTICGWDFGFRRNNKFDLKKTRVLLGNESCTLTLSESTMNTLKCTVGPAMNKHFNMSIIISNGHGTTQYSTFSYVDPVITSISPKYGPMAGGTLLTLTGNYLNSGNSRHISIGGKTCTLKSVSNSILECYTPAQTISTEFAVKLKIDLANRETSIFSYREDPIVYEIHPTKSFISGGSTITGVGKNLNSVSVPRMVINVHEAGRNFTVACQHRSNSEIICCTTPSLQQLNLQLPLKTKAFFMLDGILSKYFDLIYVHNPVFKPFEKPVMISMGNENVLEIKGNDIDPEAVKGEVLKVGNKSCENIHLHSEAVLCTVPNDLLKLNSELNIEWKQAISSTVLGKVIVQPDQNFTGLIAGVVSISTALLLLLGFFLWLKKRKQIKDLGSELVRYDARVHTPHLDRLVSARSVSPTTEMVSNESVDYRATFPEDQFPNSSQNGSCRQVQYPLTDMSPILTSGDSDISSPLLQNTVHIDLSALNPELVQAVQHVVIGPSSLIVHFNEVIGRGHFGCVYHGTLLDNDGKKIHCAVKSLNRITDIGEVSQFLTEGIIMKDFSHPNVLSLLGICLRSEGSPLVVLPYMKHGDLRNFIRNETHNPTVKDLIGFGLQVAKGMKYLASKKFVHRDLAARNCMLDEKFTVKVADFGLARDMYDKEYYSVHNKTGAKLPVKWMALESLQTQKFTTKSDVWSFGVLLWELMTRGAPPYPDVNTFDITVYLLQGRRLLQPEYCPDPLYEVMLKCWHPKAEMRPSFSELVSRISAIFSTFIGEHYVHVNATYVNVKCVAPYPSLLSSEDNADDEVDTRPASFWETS
T1 sequence (P08581 with tags, fused parts or gaps): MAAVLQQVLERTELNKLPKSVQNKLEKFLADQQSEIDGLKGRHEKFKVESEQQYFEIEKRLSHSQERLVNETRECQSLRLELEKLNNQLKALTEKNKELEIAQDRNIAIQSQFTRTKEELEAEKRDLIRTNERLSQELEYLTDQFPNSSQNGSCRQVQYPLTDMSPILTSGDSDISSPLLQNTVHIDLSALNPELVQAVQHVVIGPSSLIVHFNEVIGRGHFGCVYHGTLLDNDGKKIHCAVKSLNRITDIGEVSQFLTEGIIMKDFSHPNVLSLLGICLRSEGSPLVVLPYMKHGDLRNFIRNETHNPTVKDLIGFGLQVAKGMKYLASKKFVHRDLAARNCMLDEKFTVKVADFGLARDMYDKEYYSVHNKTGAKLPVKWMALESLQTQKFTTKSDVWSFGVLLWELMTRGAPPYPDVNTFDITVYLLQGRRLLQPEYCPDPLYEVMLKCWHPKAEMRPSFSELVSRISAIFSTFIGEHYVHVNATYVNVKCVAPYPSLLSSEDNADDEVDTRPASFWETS

Turning to `Cn1cc(-c2cnc3nnc(C(F)(F)c4ccc5ncccc5c4)n3n2)cn1` [Compound I-19, 3-[(6-quinolyl)difluoromethyl]-6-[(1-methyl)-4-pyrazolyl]-[1,2,4]triazolo[4,3-b][1,2,4]triazine], the “tumor growth inhibition (TGI)” value was 83.9% in data set [1] (setting [3]) and 95.3% in data set [1] (setting [4]). Moreover, in data set [1], the “inhibitory action on the growth of transplanted tumor” value is reported as “significantly inhibitory action”. The death of mice entry in data set [2] (setting [4]) is given as “one mouse died on the 9th day”. Moreover, the “weight loss of nude mice” value in data set [2] is “No mouse in I-19 or JNJ-38877605 treated group show obvious weight loss”.

In the case of `COc1cccc(-c2cnc3nnc(COc4ccnc5ccccc45)n3n2)c1` [II-26, 3-(4-quinolyloxymethyl)-6-(3-methoxyphenyl)-[1,2,4]triazolo[4,3-b][1,2,4]triazine], the IC50 on c-Met tyrosine kinase stood at 1 nM. For the same compound, the values for the inhibition at 1 µM in the data set with NIH3T3/TPR-Met cells (1 μM) and in the data set on NIH3T3 background cells (1 μM) were 20.9% and 36.8%, respectively. Moreover, the figures for the inhibition at 10 µM with NIH3T3/TPR-Met cells (10 μM) and with NIH3T3 background cells (10 μM) were 82.7% and 58.7%, respectively. Besides, the inhibition at 50 µM in the data set on NIH3T3/TPR-Met cells (50 μM) was found to be 83.9%; in the data set on NIH3T3 background cells (50 μM) it was 62.2%.

In turn, `Oc1cccc(-c2cnc3nnc(COc4ccnc5ccccc45)n3n2)c1` [II-27, 3-(4-quinolyloxymethyl)-6-(3-hydroxyphenyl)-[1,2,4]triazolo[4,3-b][1,2,4]triazine] yielded an IC50 on c-Met tyrosine kinase of 0.88 nM. For the same compound, the values for the inhibition at 1 µM in the data set with NIH3T3/TPR-Met cells (1 μM) and in the data set on NIH3T3 background cells (1 μM) were 9.2% and 18.3%, respectively. Besides, the inhibition at 10 µM was determined as 72.6% in the data set with NIH3T3/TPR-Met cells (10 μM) and 37.7% in the data set on NIH3T3 background cells (10 μM). For the same compound, the inhibition at 50 µM in the data set on NIH3T3/TPR-Met cells (50 μM) turned out to be 80.7%; in the data set on NIH3T3 background cells (50 μM), 46%.

In the case of `COc1ccc2c(OCc3nnc4ncc(-c5cnn(C)c5)nn34)ccnc2c1` [II-29, 3-[(7-methoxy-4-quinolyl)oxymethyl]-6-[(1-methyl)-4-pyrazolo]-[1,2,4]triazolo[4,3-b][1,2,4] triazine], 2.4 nM corresponded to half-maximal inhibition on c-Met tyrosine kinase (IC50). The results for the inhibition at 1 µM in the data set on NIH3T3/TPR-Met cells (1 μM) and in the data set on NIH3T3 background cells (1 μM) were 87.4% and 31.8%, respectively. Moreover, the values for the inhibition at 10 µM with NIH3T3/TPR-Met cells (10 μM) and in the data set on NIH3T3 background cells (10 μM) were 88.2% and 32.9%, respectively. The inhibition at 50 µM with NIH3T3/TPR-Met cells (50 μM) was 91.9%; in the data set on NIH3T3 background cells (50 μM), 50.9%.

With `Cn1cc(-c2ccc3nnc(C(F)(F)c4ccc5ncccc5c4)n3n2)cn1` [JNJ-38877605, reference compound], the IC50 against c-Met tyrosine kinase stood at 0.95 nM. Further, the “c-Met phosphorylation in NIH3T3/TPR-Met cells” value at TPR-Met is given as “less potency”. Also, the “inhibition rate (%) on proliferation of NIH3T3/TPR-Met cells” value turned out to be 70.8% with NIH3T3/TPR-Met cells (1 μM), 72.2% in the data set with NIH3T3/TPR-Met cells (10 μM) and 77.3% with NIH3T3/TPR-Met cells (50 μM). In addition, the “inhibition rate (%) on proliferation of NIH3T3 background cells” value in the data set with NIH3T3 background cells (1 μM) turned out to be 16.0%; in the data set on NIH3T3 background cells (10 μM), 15.1%; in the data set on NIH3T3 background cells (50 μM), 25.7%. Also, the “tumor growth inhibition (TGI)” value is listed as 101.4% in data set [1] (setting [3]) and 106.9% in data set [1] (setting [4]). In data set [1], the “inhibitory action on the growth of transplanted tumor” value is “significantly inhibitory action”. In addition, in data set [2], the “weight loss of nude mice” value was “No mouse in I-19 or JNJ-38877605 treated group show obvious weight loss”.

`Cc1[nH]c(/C=C2\C(=O)Nc3ccc(S(=O)(=O)N(C)c4cccc(Cl)c4)cc32)c(C)c1C(=O)N1CCN(C)CC1` [SU11274, reference compound] yielded an IC50 at c-Met tyrosine kinase of 7.9 nM. Besides, the figures for the inhibition at 1 µM in the data set with NIH3T3/TPR-Met cells (1 μM) and in the data set with NIH3T3 background cells (1 μM) were 8.5% and 19.9%, respectively. Further, the figures for the inhibition at 10 µM in the data set with NIH3T3/TPR-Met cells (10 μM) and in the data set on NIH3T3 background cells (10 μM) were 80.1% and 44.2%, respectively. Besides, the inhibition at 50 µM came to 88.7% with NIH3T3/TPR-Met cells (50 μM) and 70.6% in the data set with NIH3T3 background cells (50 μM).

(Values after patent US20130324542A1, “[1,2,4]TRIAZOLO[4,3-B][1,2,4]TRIAZINE COMPOUNDS, PREPARATION METHOD AND USE THEREOF” (SHANGHAI INSTITUTE OF MATERIA MEDICA, CHINESE ACADEMY OF …, priority 2010, published 2013).)
